From patent EP4310093A1, “AMINO ACID DERIVATIVE, PREPARATION METHOD THEREFOR, AND PHARMACEUTICAL COMPOSITION FOR TREATING HEPATITIS, COMPRISING SAME” (priority 2021, dated 2022)

Target: T1, NTCP (Homo sapiens, UniProt Q14973)
T1 construct: expressed in transfected cells; host or cells: HepG2-hNTCP-C4
T1 sequence (Q14973 1-349): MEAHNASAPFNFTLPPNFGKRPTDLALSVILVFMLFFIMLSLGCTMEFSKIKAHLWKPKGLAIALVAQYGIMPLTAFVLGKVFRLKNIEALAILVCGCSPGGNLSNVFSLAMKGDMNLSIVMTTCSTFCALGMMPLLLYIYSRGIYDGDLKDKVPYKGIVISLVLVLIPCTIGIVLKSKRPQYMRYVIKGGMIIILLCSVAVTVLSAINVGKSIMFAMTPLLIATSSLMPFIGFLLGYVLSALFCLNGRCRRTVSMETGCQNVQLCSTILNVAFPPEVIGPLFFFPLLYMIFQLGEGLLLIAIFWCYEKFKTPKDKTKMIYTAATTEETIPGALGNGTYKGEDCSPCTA
Test: Inhibition of the binding between PreS1 (FITC-labelled) and NTCP expressing cell lines, flow cytometry
Details: for activity at 50 µM: 2 h, read-out: relative fluorescence intensity compared to the HBV-induced group (HBV PreS1) solely treated with PreS1, 50 µM compound, 20 nM PreS1, HepG2-hNTCP-C4 cell line, 4°C, 2 hours, the lower the value, the more inhibited the binding
Method: HepG2-hNTCP-C4 cell line, a cell line expressing NTCP, was seeded in a 6 well plate at a density of 2×10^5/well and incubated at 4°C for 30 minutes when the confluency reached 80% after overnight incubation for 2 days. Thereafter, 20 nM PreS 1 (Myr-[…]-Lys(FITC)) and the compounds in Example 1, Examples 38 to 56 or the compound in Comparative Example 1 were treated by diluting in culture media at 4°C at a concentration of 50 µM respectively, and the media was suctioned after 2 hours, followed by washing 3 times with 4°C PBS. In order to take the cells off from the plate, 500 µl of 0.5 mM EDTA PBS solution was treated, and then incubation was performed at 37°C for 15 minutes to check whether the cells fell off through an optical microscope. After taking off the cells by pipetting, the cells were collected in a 1.5 ml tube and centrifuged (4000 rpm, 4°C, 3 min). After suctioning the supernatant, the pellet was washed 3 times with 4°C PBS, and then green fluorescence was measured via flow cytometry. In this case, taurocholic acid (TCA), a compound known as a substrate of NTCP to reduce the entry of HBV or HDV, was used as a positive control group.
In the graph at the top of FIG. 1, black (1) and red (2) indicate a negative control group with no treatment and an HBV-induced group (HBV preS1) solely treated with PreS1, respectively. Blue (HBV preS1+HBV entry inhibitor) (3) is the fluorescence value for each of Examples or Comparative Examples, evaluated that the closer to the negative control group, the more inhibited the binding between PreS1 and the NTCP cell line.
The experimental method was the same as in the Experimental Example 1-1, and 20 nM PreS1 and each compound were treated at 4 concentrations (0.2 µM, 2 µM, 10 µM, 50 µM).
With an expectation that there is a structure-activity relationship among compounds composed of bile acid and amino acids, for each of bile acids in Comparative Example 1 (lithocholic acid, LCA), Comparative Example 2 (ursodeoxycholic acid, UDCA), Comparative Example 3 (cholic acid, CA), Comparative Example 4 (hyodeoxycholic acid, HDCA), Comparative Example 5 (deoxycholic acid, DCA), and Comparative Example 6 (chenodeoxycholic acid, CDCA), an evaluation experiment was conducted on an ability to inhibit the binding between PreS1 and NTCP expressing cell lines, and also for Examples 1 (LCA-Ile) and Example 44 (LCA-Val) as well as the compounds in Example 2 (UDCA-Ile), Example 3 (UDCA-Val), Example 6 (CA-Ile), Example 7 (CA-Val), Example 8 (HDCA-Ile), Example 9 (HDCA-Val), Example 10 (DCA-Ile), Example 11 (DCA-Val), Example 14 (CDCA-Ile), and Example 15 (CDCA-Val) in which bile acid parts (lithocholic acid) of Example 1 (LCA-Ile) and Example 44 (LCA-Val) were substituted with other types of bile acids in Comparative Examples 2 to 6, an evaluation experiment was conducted on an ability to inhibit the binding between PreS1 and NTCP expressing cell lines. The experimental method was the same as in the Experimental Example 1-1, and 18 compounds in the Comparative Examples 1 to 6, Examples 1 to 3, Examples 6 to 11, Examples 14 to 15, and Example 44 were treated at a concentration of 50 µM along with 20 nM PreS 1. […]
In the Experimental Examples 1-4, it was determined whether there is additionally concentration dependence for Example 4 (UDCA-Trp), a compound with good inhibitory ability. […]

SMILES	effect of inhibiting the binding between PreS1 and NTCP expressing cell lines by treatment concentration (2 µM, 10 µM, 20 µM, 50 µM compound, 20 nM PreS1)	activity at 50 µM
C[C@H](CCC(=O)N[C@@H](Cc1c[nH]c2ccccc12)C(=O)O)[C@H]1CC[C@H]2[C@@H]3[C@@H](O)C[C@@H]4C[C@H](O)CC[C@]4(C)[C@H]3CC[C@]12C [Example 4, (S)-2-((R)-4-((3R,5S,7S,8R,9S,10S,13R,14S,17R)-3,7-dihydroxy-10,13-dimethyl-hexadecahydro-1H-cyclopenta[a]phenanthren-17-yl)pentanamido)-3-(1H-indol-3-yl)propanoic acid]	concentration dependent	–
C[C@H](CCC(=O)N1CCCC1C(=O)O)[C@H]1CC[C@H]2[C@@H]3CC[C@@H]4C[C@H](O)CC[C@]4(C)[C@H]3CC[C@]12C (stereo partly drawn) [Example 38, 1-((R)-4-((3R,5R,8R,9S,10S,13R,14S,17R)-3-hydroxy-10,13-dimethyl-hexadecahydro-1H-cyclopenta[a]phenanthren-17-yl)pentanoyl)pyrrolidine-2-carboxylic acid]	–	≤ 20%
C[C@H](CCC(=O)N[C@@H](CS)C(=O)O)[C@H]1CC[C@H]2[C@@H]3CC[C@@H]4C[C@H](O)CC[C@]4(C)[C@H]3CC[C@]12C [Example 40, (R)-2-((R)-4-((3R,5R,8R,9S,10S,13R,14S,17R)-3-hydroxy-10,13-dimethyl-hexadecahydro-1H-cyclopenta[a]phenanthren-17-yl)pentanamido)-3-mercaptopropanoic acid]	–	≤ 20%
CC(C)C[C@H](NC(=O)CC[C@@H](C)[C@H]1CC[C@H]2[C@@H]3CC[C@@H]4C[C@H](O)CC[C@]4(C)[C@H]3CC[C@]12C)C(=O)O [Example 47]	–	≤ 20%
CSCC[C@H](NC(=O)CC[C@@H](C)[C@H]1CC[C@H]2[C@@H]3CC[C@@H]4C[C@H](O)CC[C@]4(C)[C@H]3CC[C@]12C)C(=O)O [Example 48, (S)-2-((R)-4-((3R,5R,8R,9S,10S,13R,14S,17R)-3-hydroxy-10,13-dimethyl-hexadecahydro-1H-cyclopenta[a]phenanthren-17-yl)pentanamido)-4-(methylthio)butanoic acid]	–	≤ 20%
